The target of the assay is Sodium-dependent serotonin transporter (Homo sapiens, UniProt P31645). Kind of assay: In vitro displacement of [3H]paroxetine from human serotonin transporter expressed in HEK293 cells. It is filed as cell-based.

Results on 1 compound are retold here after ChEMBL document CHEMBL1145212, “Fluorinated diaryl sulfides as serotonin transporter ligands: synthesis, structure-activity relationship study, and in vivo evaluation of fluorine-18-labeled compounds as PET imaging agents” (J Med Chem, 2005).

Sodium-dependent serotonin transporter, sequence (P31645 whole entry): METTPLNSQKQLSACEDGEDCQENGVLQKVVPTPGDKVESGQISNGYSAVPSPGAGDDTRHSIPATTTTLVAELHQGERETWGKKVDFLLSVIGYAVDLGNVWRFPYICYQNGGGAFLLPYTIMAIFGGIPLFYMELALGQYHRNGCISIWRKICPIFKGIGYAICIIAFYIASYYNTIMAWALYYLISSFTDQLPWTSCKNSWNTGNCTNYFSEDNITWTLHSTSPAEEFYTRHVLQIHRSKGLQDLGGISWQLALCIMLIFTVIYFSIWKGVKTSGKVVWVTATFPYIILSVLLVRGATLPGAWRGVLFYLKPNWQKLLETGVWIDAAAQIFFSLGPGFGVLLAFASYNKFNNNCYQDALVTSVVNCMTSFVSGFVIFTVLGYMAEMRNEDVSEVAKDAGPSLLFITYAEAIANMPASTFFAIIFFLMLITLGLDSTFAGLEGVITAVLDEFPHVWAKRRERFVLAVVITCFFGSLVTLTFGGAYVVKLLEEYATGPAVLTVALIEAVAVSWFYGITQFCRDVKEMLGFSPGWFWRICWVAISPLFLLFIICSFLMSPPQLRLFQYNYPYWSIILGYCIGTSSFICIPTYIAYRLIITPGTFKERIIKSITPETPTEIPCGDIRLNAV

As for `Cc1ccc(Sc2ccccc2CN(C)C)c(N)c1`, the Ki amounted to 1.19 nM. In other words, the single-digit nanomolar range.
